This is an account of results in US20260008758A1, “LINEAR DIPEPTIDYL PEPTIDASE 1 INHIBITORS AND USES THEREOF” (Insmed Incorporated, priority 2024, published 2026).

The target in one experiment is DPP1 in HL-60 cells (Homo sapiens (Human), UniProt P53634). Put plainly: DPP1 Cell IC50 assay. The note with it: H-Gly-Phe-AFC substrate, 60 min pre-incubation. Type of experiment: cell-based. The protocol:
Media was changed every three to four days and cells were not allowed to exceed 1×10^6 cells per mL. Prior to assay, cells were collected by centrifugation at 500 rcf for 3 minutes, resuspended in PBS and counted. Cells were diluted in PBS to a concentration of 5×10^5 live cells per mL and transferred to black 96-well plates for assay, 60 μL per well. Test articles were diluted in PBS plus 0.5% DMSO, and 20 μL was added to each assay well. Compound was allowed to pre-incubate with cells with gentle shaking at 100 rpm for 60 minutes at 37° C. in a cell culture incubator maintained at 5% CO2, after which 20 μL of 500 μM H-Gly-Phe-AFC substrate (MP Biomedicals; Solon, OH) was added to each well. Plates were returned to the incubator with shaking at 100 rpm for 30 minutes, after which fluorescence was measured at Excitation/Emission 400/505 nm. % Inhibition was calculated from RFU values compared to control cell wells that received only PBS plus 0.5% DMSO. IC50 values for each compound were calculated via the XLFit (IDBS Version 5.3.1.3) Add-On to Microsoft Excel using the four parameter fit equation y=(A+((B-A)/(1+((C/x)^D)))), which appears as equation number 205 (4 Parameter Logistic Model or Sigmoidal Dose-Response Model) in XLFit.

For another experiment, the target named is human DPP1 enzyme (Homo sapiens (Human), UniProt P53634). Put plainly: Human DPP1 enzyme IC50 assay. Type of experiment: biochemical. The following applies: recombinant human DPP1, H-Gly-Arg-AMC substrate 400 μM. Summed up: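 Fluorogenic readout (350/450 nm, every 5 min over 90 min, 37°C) of H-Gly-Arg-AMC cleavage at 400 μM final substrate. Compounds met activated DPP1 first for a 10-min 37°C pre-incubation in MES buffer pH 6.0 with DTT, 1% DMSO final. Four-parameter sigmoidal fit gave IC50.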

Bounds are passed on as bounds.

Chain of human DPP1 enzyme (P53634 25-134): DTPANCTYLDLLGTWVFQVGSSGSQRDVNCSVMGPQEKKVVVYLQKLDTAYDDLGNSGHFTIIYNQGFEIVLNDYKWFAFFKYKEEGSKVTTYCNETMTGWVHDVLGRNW
Chain of human DPP1 enzyme (P53634 231-394): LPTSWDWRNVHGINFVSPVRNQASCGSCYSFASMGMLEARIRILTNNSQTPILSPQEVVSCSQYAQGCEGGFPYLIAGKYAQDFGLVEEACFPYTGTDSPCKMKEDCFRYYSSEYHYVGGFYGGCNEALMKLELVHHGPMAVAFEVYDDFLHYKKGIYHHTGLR
Chain of human DPP1 enzyme (P53634 395-463): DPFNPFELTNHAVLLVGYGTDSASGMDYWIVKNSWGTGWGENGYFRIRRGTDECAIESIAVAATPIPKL
Chain of DPP1 in HL-60 cells (P53634 25-134): as the sequence (P53634 25-134) above
Chain of DPP1 in HL-60 cells (P53634 231-394): as the sequence (P53634 231-394) above
Chain of DPP1 in HL-60 cells (P53634 395-463): as the sequence (P53634 395-463) above

In the case of `Cn1c(=O)oc2ccc(-c3ccc(C[C@@H](C#N)NC(=O)[C@@H](N)C4CCCO4)cc3)cc21` (stereo in doubt) [Compound 212, (2S)-2-amino-N-[(1S)-1-cyano-2-[4-(3-methyl-2-oxo-1,3-benzoxazol-5-yl)phenyl]ethyl]-2-[(2R)-oxolan-2-yl]acetamide], the IC50 on DPP1 in HL-60 cells was 1 to 2.5 nM; on human DPP1 enzyme it was at most 5 nM.

As for `CN(C)C[C@H](F)C(=O)N[C@H](C#N)Cc1ccc(-c2ccc3oc(=O)n(C)c3c2)cc1F` [Compound 278, (2S)—N-[(1S)-1-cyano-2-[2-fluoro-4-(3-methyl-2-oxo-1,3-benzoxazol-5-yl)phenyl]ethyl]-3-(dimethylamino)-2-fluoropropanamide], the IC50 against DPP1 in HL-60 cells was at least 2.5 nM; on human DPP1 enzyme, at least 15 nM.

Consider `CO[C@@H](CN(C)C)C(=O)N[C@H](C#N)Cc1ccc(-c2ccc3oc(=O)n(C)c3c2)cc1` [Compound 105, (2S)—N-[(1S)-1-cyano-2-[4-(3-methyl-2-oxo-1,3-benzoxazol-5-yl)phenyl]ethyl]-3-(dimethylamino)-2-methoxypropanamide], for which the IC50 against DPP1 in HL-60 cells is 1 to 2.5 nM; on human DPP1 enzyme, at least 15 nM.

For `Cn1c(=O)oc2ccc(-c3ccc(C[C@@H](C#N)NC(=O)C(N)Cc4ccon4)cc3)cc21` (stereo partly drawn) [Compound 231, 2-amino-N-[(1S)-1-cyano-2-[4-(3-methyl-2-oxo-1,3-benzoxazol-5-yl)phenyl]ethyl]-3-(1,2-oxazol-3-yl)propanamide], the IC50 is at least 2.5 nM against DPP1 in HL-60 cells and at most 5 nM at human DPP1 enzyme.

In the case of `COCCN(C)CCn1c(=O)oc2ccc(-c3ccc(C[C@@H](C#N)NC(=O)[C@@](C)(N)C4CCC4)c(F)c3)cc21` [Compound 270A, (2S)-2-amino-N-[(1S)-1-cyano-2-[2-fluoro-4-(3-{2-[(2-methoxyethyl)(methyl)amino]ethyl}-2-oxo-1,3-benzoxazol-5-yl)phenyl]ethyl]-2-cyclobutylpropanamide], the IC50 against DPP1 in HL-60 cells was at least 2.5 nM; on human DPP1 enzyme, at least 15 nM.

For the compound `Cn1c(=O)oc2ccc(-c3ccc(C[C@@H](C#N)NC(=O)C(N)Cc4cocn4)cc3)cc21` (stereo partly drawn) [Compound 204, 2-amino-N-[(1S)-1-cyano-2-[4-(3-methyl-2-oxo-1,3-benzoxazol-5-yl)phenyl]ethyl]-3-(1,3-oxazol-4-yl)propanamide], the IC50 is 1 to 2.5 nM against DPP1 in HL-60 cells and at most 5 nM at human DPP1 enzyme.

`COCCN(C)CCn1c(=O)oc2ccc(-c3ccc(C[C@@H](C#N)NC(=O)[C@](C)(N)C4CCCC4)cc3)cc21` [Compound 258B, (2R)-2-amino-N-[(1S)-1-cyano-2-[4-(3-{2-[(2-methoxyethyl)(methyl)amino]ethyl}-2-oxo-1,3-benzoxazol-5-yl)phenyl]ethyl]-2-cyclopentylpropanamide]: the figures for the IC50 against DPP1 in HL-60 cells and at human DPP1 enzyme were 1 to 2.5 nM and at most 5 nM, respectively.

As for `CN(C)C[C@H](O)C(=O)N[C@H](C#N)Cc1ccc(-c2ccc3c(c2)C(C2CCN(C4COC4)CC2)OC3)cc1` (stereo partly drawn) [Compound 281, (2S)—N-[(1S)-1-cyano-2-(4-{3-[1-(oxetan-3-yl)piperidin-4-yl]-1,3-dihydro-2-benzofuran-5-yl}phenyl)ethyl]-3-(dimethylamino)-2-hydroxypropanamide], the IC50 against DPP1 in HL-60 cells was at least 2.5 nM; on human DPP1 enzyme it was at least 15 nM.

As to `CO[C@@H](CN)C(=O)N[C@H](C#N)Cc1ccc(-c2ccc3oc(=O)n(C)c3c2)cc1` [Compound 103, (2S)-3-amino-N-[(1S)-1-cyano-2-[4-(3-methyl-2-oxo-1,3-benzoxazol-5-yl)phenyl]ethyl]-2-methoxypropanamide], the figures for the concentration for half-maximal inhibition (IC50) at DPP1 in HL-60 cells and at human DPP1 enzyme were at least 2.5 nM and at least 15 nM, respectively.

For `Cn1c(=O)oc2ccc(-c3ccc(C[C@@H](C#N)NC(=O)[C@@H](N)[C@@H]4CCc5ccccc54)cc3)cc21` [Compound 206, (S)-2-amino-N—((S)-1-cyano-2-(4-(3-methyl-2-oxo-2,3-dihydrobenzo[d]oxazol-5-yl)phenyl)ethyl)-2-((R)-2,3-dihydro-1H-inden-1-yl)acetamide], the figures for the half-inhibitory concentration (IC50) against DPP1 in HL-60 cells and on human DPP1 enzyme were at least 2.5 nM and at least 15 nM, respectively.

With `CN(C)C[C@H](O)C(=O)N[C@H](C#N)Cc1ccc(-c2ccc3c(n2)CCCN3)cc1F` [Compound 276, (2S)—N-[(1S)-1-cyano-2-[2-fluoro-4-(5,6,7,8-tetrahydro-1,5-naphthyridin-2-yl)phenyl]ethyl]-3-(dimethylamino)-2-hydroxypropanamide], the values for the IC50 on DPP1 in HL-60 cells and at human DPP1 enzyme were at least 2.5 nM and at least 15 nM, respectively.

With `CCCCOCCn1c(=O)oc2ccc(-c3ccc(C[C@@H](C#N)NC(=O)C(C)(N)C4CCC4)c(F)c3)cc21` (stereo partly drawn) [Compound 267, 2-amino-N-[(1S)-2-{4-[3-(2-butoxyethyl)-2-oxo-1,3-benzoxazol-5-yl]-2-fluorophenyl}-1-cyanoethyl]-2-cyclobutylpropanamide], the IC50 at DPP1 in HL-60 cells is at least 2.5 nM; at human DPP1 enzyme it was at most 5 nM.

For the compound `CCN1C(=O)Cc2ccc(-c3ccc(C[C@@H](C#N)NC(=O)[C@@](C)(N)C4CCCC4)c(F)c3)cc21` [Compound 264A, (2S)-2-amino-N-[(1S)-1-cyano-2-[4-(1-ethyl-2-oxo-3H-indol-6-yl)-2-fluorophenyl]ethyl]-2-cyclopentylpropanamide], the IC50 against DPP1 in HL-60 cells is at least 2.5 nM; on human DPP1 enzyme, at least 15 nM.

Regarding `CO[C@@H](CN(C)C)C(=O)N[C@H](C#N)Cc1ccc(-c2ccc3c(c2)C2(CCN(C4COC4)CC2)OC3)cc1F` [Compound 284, (2S)—N-[(1S)-1-cyano-2-{2-fluoro-4-[1′-(oxetan-3-yl)-3H-spiro[2-benzofuran-1,4′-piperidin]-6-yl]phenyl}ethyl]-3-(dimethylamino)-2-methoxypropanamide], the IC50 at DPP1 in HL-60 cells is at least 2.5 nM; at human DPP1 enzyme, 5 to 15 nM.

On to `CC(C(=O)N[C@H](C#N)Cc1ccc(-c2ccc3oc(=O)n(C)c3c2)cc1)C1(N)CC1` (stereo partly shown) [Compound 195], for which the half-inhibitory concentration (IC50) at DPP1 in HL-60 cells is at least 2.5 nM; at human DPP1 enzyme, at least 15 nM.

Consider `CN(C)C[C@H](O)C(=O)N[C@H](C#N)Cc1ccc(-c2ccc3cnn(C4CCN(C)CC4)c3c2)cc1F` [Compound 285, (S)—N—((S)-1-cyano-2-(2-fluoro-4-(1-(1-methylpiperidin-4-yl)-1H-indazol-6-yl)phenyl)ethyl)-3-(dimethylamino)-2-hydroxypropanamide], for which the IC50 against DPP1 in HL-60 cells is at least 2.5 nM; at human DPP1 enzyme it was 5 to 15 nM.

As for `Cn1c(=O)oc2ccc(-c3ccc(C[C@@H](C#N)NC(=O)C(N)Cc4cc[nH]n4)cc3)cc21` (stereo partly drawn) [Compound 221, 2-amino-N-[(1S)-1-cyano-2-[4-(3-methyl-2-oxo-1,3-benzoxazol-5-yl)phenyl]ethyl]-3-(1H-pyrazol-3-yl)propanamide], the IC50 is at least 2.5 nM at DPP1 in HL-60 cells and at most 5 nM at human DPP1 enzyme.

For the compound `CN(C)CCn1c(=O)oc2ccc(-c3ccc(C[C@@H](C#N)NC(=O)C(C)(N)C4CCC4)c(F)c3)cc21` (stereo partly drawn) [Compound 268, 2-amino-N-[(1S)-1-cyano-2-(4-{3-[2-(dimethylamino)ethyl]-2-oxo-1,3-benzoxazol-5-yl}-2-fluorophenyl)ethyl]-2-cyclobutylpropanamide], the values for the IC50 against DPP1 in HL-60 cells and at human DPP1 enzyme were 1 to 2.5 nM and at most 5 nM, respectively.

Take `CC(C)C(C)(N)C(=O)N[C@H](C#N)Cc1ccc(-c2ccc3oc(=O)n(C)c3c2)cc1` (stereo partly drawn) [Compound 172, 2-amino-N-[(1S)-1-cyano-2-[4-(3-methyl-2-oxo-1,3-benzoxazol-5-yl)phenyl]ethyl]-2,3-dimethylbutanamide]: the IC50 at DPP1 in HL-60 cells was in the range of 1 to 2.5 nM; on human DPP1 enzyme, 5 to 15 nM.

Take `Cn1c(=O)oc2ccc(-c3ccc(C[C@@H](C#N)NC(=O)[C@H](N)Cc4c[nH]cn4)cc3)cc21` [Compound 215, (2R)-2-amino-N-[(1S)-1-cyano-2-[4-(3-methyl-2-oxo-1,3-benzoxazol-5-yl)phenyl]ethyl]-3-(1H-imidazol-4-yl)propanamide]: the IC50 was at least 2.5 nM against DPP1 in HL-60 cells and at least 15 nM at human DPP1 enzyme.

On to `Cn1c(=O)oc2ccc(-c3ccc(C[C@@H](C#N)NC(=O)[C@@H](O)CN)cc3)cc21` [Compound 110, (2S)-3-amino-N-[(1S)-1-cyano-2-[4-(3-methyl-2-oxo-1,3-benzoxazol-5-yl)phenyl]ethyl]-2-hydroxypropanamide], for which the IC50 was at least 2.5 nM against DPP1 in HL-60 cells and at least 15 nM at human DPP1 enzyme.

Turning to `Cn1c(=O)oc2ccc(-c3ccc(C[C@@H](C#N)NC(=O)C4(N)CCCC45CC5)cc3)cc21` (stereo partly drawn) [Compound 222, 4-amino-N-[(1S)-1-cyano-2-[4-(3-methyl-2-oxo-1,3-benzoxazol-5-yl)phenyl]ethyl]spiro[2.4]heptane-4-carboxamide], the IC50 at DPP1 in HL-60 cells is 1 to 2.5 nM; at human DPP1 enzyme, at most 5 nM.

Take `Cn1c(=O)oc2ccc(-c3ccc(C[C@@H](C#N)NC(=O)C(N)Cc4ncsc4Cl)cc3)cc21` (stereo partly drawn) [Compound 218, 2-amino-3-(5-chloro-1,3-thiazol-4-yl)-N-[(1S)-1-cyano-2-[4-(3-methyl-2-oxo-1,3-benzoxazol-5-yl)phenyl]ethyl]propanamide]: the IC50 against DPP1 in HL-60 cells was at least 2.5 nM; on human DPP1 enzyme it was 5 to 15 nM.

As a reminder, the IC50 is the midpoint of a concentration-inhibition curve.
